Laboratory results published in patent US9540380B2, “Imidazotriazinone compounds” (Ironwood Pharmaceuticals, Inc., priority 2010, dated 2017).

Target: T1, PDE9A2 (Homo sapiens, UniProt O76083)
T1 construct: purchased Reaction Biology Corporation, Malvern, Pa
Experiment: Phosphodiesterase Enzyme Screening Assay, PDE9A2 (Caliper LabChip mobility-shift)
Assay type: biochemical
Details: 10 concentrations, 4.0 μM cGMP substrate, 1 hour at R.T.; read-out: Band (PDE9A2 IC50)
Description: Compounds of the invention were screened against PDE1A, PDE1B, PDE2A, PDE3A, PDE3B, PDE4A1A, PDE4B1, PDE4D3, PDE5A1, PDE6C, PDE7A, PDE8A1, PDE9A2, PDE10A2 AND PDE11A isoforms of the phosphodiesterase enzyme to determine activity and overall selectivity through comparative analysis. The assay generally consists of testing the compounds of the invention at 10 concentrations. Where 8-methoxy-IBMX and Zaprinast were used as reference inhibitors.
The phosphodiesterase enzyme isoforms were obtained from a commercial retailer (Reaction Biology Corporation, Malvern, Pa.) for use in the instant screening assay.
The analysis was completed using the Caliper LabChip 3000 and a 12-sipper LabChip. LabChip assays are separations-based, meaning that the product and substrate are electrophoretically separated, thereby minimizing interferences and yielding the highest data quality available on any screening platform. Z′ factors for both the EZ Reader and LC3000 enzymatic assays are routinely in the 0.8 to 0.9 range. High Z′ values, few false positives, few false negatives and analytical quality reproducibility are the reasons cited for the increasing reliance on the LabChip assays.
The off-chip incubation mobility-shift phosphodiesterase assay uses a microfluidic chip to measure the conversion of a fluorescent cyclic AMP substrate to a 5′-AMP product, or a cyclic GMP substrate to a 5′-GMP product. The reaction mixture, from a microtiter plate well, is introduced through a capillary sipper onto the chip, where the fluorescent substrate and product are separated by electrophoresis and detected via laser-induced fluorescence. […] The precision of microfluidics allows researchers to detect subtle interactions between drug candidates and therapeutic targets. The technology is able to detect both strong and weak inhibitors with high accuracy, and routinely identifies drug candidates that conventional techniques miss.
Reactions were carried out in 100 mM HEPES (pH 7.5), 5 mM MgCl2, 1 mM DTT, 0.003% Brij, 4.0 μM cGMP substrate. The reaction was started by addition of cGMP or cAMP and incubated for 1 hour at R.T. The reaction was terminated by the addition of stop buffer containing 100 mM HEPES (pH 7.5), 15 mM EDTA, 0.015% Brij-35, 5% DMSO. Cyclic AMP/GMP substrate and 5′-AMP/5′-GMP product were separated by charge using electrophoretic mobility shift. Product formed was compared to control wells to determine inhibition or enhancement of enzyme activity.
One or more reference compounds, depending on phosphodiesterase isoform, selected from 8-methoxy-IBMX, Zaprinast, Trequinsin, Pentoxifyline, Rolipram, and Vinpocetine, Dipyridamole, and BRL-50481 were run alongside client samples to ensure data quality. The resulting IC50 is compared against the historical average and must be within 3-fold of this average.
Data points were averages of quadruplicate wells and error bars represented the SEM for each point. IC50s were determined using GraphPad Prism Version 5.01 and the log (inhibitor) vs. response variable slope curve fit.

T1 sequence (O76083 1-533 isoform O76083-2): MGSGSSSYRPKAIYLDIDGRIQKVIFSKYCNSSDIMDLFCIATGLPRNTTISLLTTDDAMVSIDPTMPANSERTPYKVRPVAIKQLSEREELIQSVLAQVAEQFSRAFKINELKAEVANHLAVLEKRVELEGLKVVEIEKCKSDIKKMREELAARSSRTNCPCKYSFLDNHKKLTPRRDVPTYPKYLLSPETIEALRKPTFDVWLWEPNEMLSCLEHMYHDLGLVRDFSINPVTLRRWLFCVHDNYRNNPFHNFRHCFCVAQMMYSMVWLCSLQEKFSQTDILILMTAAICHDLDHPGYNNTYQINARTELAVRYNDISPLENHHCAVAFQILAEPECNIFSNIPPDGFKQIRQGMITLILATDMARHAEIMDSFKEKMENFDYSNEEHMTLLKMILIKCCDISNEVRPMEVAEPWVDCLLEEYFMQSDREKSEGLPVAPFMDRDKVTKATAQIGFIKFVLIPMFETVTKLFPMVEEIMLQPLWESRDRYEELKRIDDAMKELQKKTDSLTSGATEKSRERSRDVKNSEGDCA

| SMILES | IC50 |
| --- | --- |
| CCS(=O)(=O)N1CCC(c2ncc3c(=O)[nH]c([C@@H]4CN(Cc5ncccn5)C[C@H]4C)nn23)CC1 (single isomer, unassigned) [(+)-7-(1-(ethylsulfonyl)piperidin-4-yl)-2-((3,4-trans)-4-methyl-1-(pyrimidin-2-ylmethyl)pyrrolidin-3-yl)imidazo[5,1-f][1,2,4]triazin-4(3H)-one] | 1 to 10 µM |
| CCS(=O)(=O)N1CCC(c2ncc3c(=O)[nH]c([C@@H]4CN(Cc5ccccc5)C[C@H]4C)nn23)CC1 (single isomer, unassigned) [(+)-2-((3,4-trans)-1-benzyl-4-methylpyrrolidin-3-yl)-7-(1-(ethylsulfonyl)piperidin-4-yl)imidazo[5,1-f][1,2,4]triazin-4(3H)-one] | < 1 µM |
| Cc1ccc(Cl)cc1-c1ncc2c(=O)[nH]c([C@@H]3CN(Cc4ccccc4)C[C@H]3C)nn12 (single isomer, unassigned) [(−)-2-((3,4-trans)-1-benzyl-4-methylpyrrolidin-3-yl)-7-(5-chloro-2-methylphenyl)imidazo[5,1-f][1,2,4]triazin-4(3H)-one] | 1 to 10 µM |
| CC(=O)N1CCC(c2ncc3c(=O)[nH]c([C@@H]4CN(Cc5ncccn5)C[C@H]4C)nn23)CC1 (single isomer, unassigned) [(+)-7-(1-acetylpiperidin-4-yl)-2-((3,4-trans)-4-methyl-1-(pyrimidin-2-ylmethyl)pyrrolidin-3-yl)imidazo[5,1-f][1,2,4]triazin-4(3H)-one] | 1 to 10 µM |
| CC1CN([C@@H](C)c2ccccc2)CC1c1nn2c(C3CCOCC3)ncc2c(=O)[nH]1 (single isomer, unassigned; (+)) | < 1 µM |
| C[C@@H]1CN(Cc2ccccc2)C[C@H]1c1nn2c(C3CCC(F)(F)CC3)ncc2c(=O)[nH]1 (single isomer, unassigned) [(+)-2-((3,4-trans)-1-benzyl-4-methylpyrrolidin-3-yl)-7-(4,4-difluorocyclohexyl)imidazo[5,1-f][1,2,4]triazin-4(3H)-one] | < 1 µM |

Further lines, results first:

| IC50 | SMILES |
| --- | --- |
| < 1 µM | C[C@@H]1CN(Cc2ccccc2F)C[C@H]1c1nn2c(C3CCOCC3)ncc2c(=O)[nH]1 (single isomer, unassigned) [(+)-2-((3,4-trans)-1-(2-fluorobenzyl)-4-methylpyrrolidin-3-yl)-7-(tetrahydro-2H-pyran-4-yl)imidazo[5,1-f][1,2,4]triazin-4(3H)-one] |
| > 10 µM | C[C@@H]1CN(Cc2ncccn2)C[C@H]1c1nn2c(C3CCOCC3)ncc2c(=O)[nH]1 (single isomer, unassigned) [(−)-2-((3,4-trans)-4-methyl-1-(pyrimidin-2-ylmethyl)pyrrolidin-3-yl)-7-(tetrahydro-2H-pyran-4-yl)imidazo[5,1-f][1,2,4]triazin-4(3H)-one] |
| 1 to 10 µM | C[C@@H]1CN(Cc2cnccn2)C[C@H]1c1nn2c(C3CCOCC3)ncc2c(=O)[nH]1 (single isomer, unassigned) [(−)-2-((3,4-trans)-4-methyl-1-(pyrazin-2-ylmethyl)pyrrolidin-3-yl)-7-(tetrahydro-2H-pyran-4-yl)imidazo[5,1-f][1,2,4]triazin-4(3H)-one] |
| < 1 µM | C[C@@H]1CN(Cc2ncc3ccccc3n2)C[C@H]1c1nn2c(C3CCOCC3)ncc2c(=O)[nH]1 (single isomer, unassigned) [(+)-2-((3,4-trans)-4-methyl-1-(quinazolin-2-ylmethyl)pyrrolidin-3-yl)-7-(tetrahydro-2H-pyran-4-yl)imidazo[5,1-f][1,2,4]triazin-4(3H)-one] |
| < 1 µM | C[C@@H]1CN(Cc2ncc3ccccc3n2)C[C@H]1c1nn2c(C3CCOCC3)ncc2c(=O)[nH]1 (single isomer, unassigned) [(−)-2-((3,4-trans)-4-methyl-1-(quinazolin-2-ylmethyl)pyrroli] [(−)-2-((3,4-trans)-4-methyl-1-(quinazolin-2-ylmethyl)pyrrolidin-3-yl)-7-(tetrahydro-2H-pyran-4-yl)imidazo[5,1-f][1,2,4]triazin-4(3H)-one] |
